Data from the NIST ThermoML archive (doi:10.1021/je300134c).

Assays:
[1] = Liquid; for speed of sound: Sing-around technique in a fixed-path interferometer; for mass density: Vibrating tube method
[2] = xn = mol fraction of the nth substance listed; conditions: 101 kPa, Liquid, x2 = 0; for speed of sound: Sing-around technique in a fixed-path interferometer; for mass density: Vibrating tube method

CCCC[n+]1ccn(CC)c1.O=S(=O)([O-])C(F)(F)F
[1], 101.33 kPa
Conditions	mass density [kg/m3]	speed of sound [m/s]
278.15 K	1278.02	1420.6
288.15 K	1269.97	1396.3
298.15 K	1262.21	1373.1
308.15 K	1254.44	1350.6
318.15 K	1246.71	1328.6
328.15 K	1239.01	1307.1
338.15 K	1231.35	1286.1

O [water] + CCCCn1cc[n+](C)c1.O=S(=O)([O-])C(F)(F)F
[2]
Conditions	mass density [kg/m3]	speed of sound [m/s]
318.15 K	–	1536.8
328.15 K	985.7	1547.7
338.15 K	980.56	1553.6

O [water]
[1], 101 kPa
Conditions	mass density [kg/m3]	speed of sound [m/s]
278.15 K	999.99	–
318.15 K	–	1536.8
328.15 K	985.7	1547.7
338.15 K	980.56	1553.6

CCCC[N+]1(C)CCCC1.O=S(=O)([O-])C(F)(F)F [1-butyl-1-methylpyrrolidinium trifluoromethanesulfonate]
[1], 101.33 kPa
Conditions	mass density [kg/m3]	speed of sound [m/s]
278.15 K	1267.23	1513.5
288.15 K	1259.74	1486.1
298.15 K	1252.26	1461.4
308.15 K	1245.09	1437.8
318.15 K	1237.94	1414.9
328.15 K	1230.81	1392.7
338.15 K	1223.73	1371.1

CCCCn1cc[n+](C)c1.O=S(=O)([O-])C(F)(F)F [1-butyl-3-methylimidazolium trifluoromethanesulfonate]
[1], 101.33 kPa
Conditions	mass density [kg/m3]	speed of sound [m/s]
288.15 K	1304.56	1416
298.15 K	1296.67	1393
308.15 K	1288.78	1370.7
318.15 K	1280.95	1349
328.15 K	1273.16	1327.8
338.15 K	1265.44	1307

O [water] + CCCC[N+]1(C)CCCC1.O=S(=O)([O-])C(F)(F)F
[2]
Conditions	mass density [kg/m3]	speed of sound [m/s]
278.15 K	999.99	–
318.15 K	–	1536.8
328.15 K	985.7	1547.7
338.15 K	980.56	1553.6

O [water] + CCCC[n+]1ccn(CC)c1.O=S(=O)([O-])C(F)(F)F
[2]
Conditions	mass density [kg/m3]	speed of sound [m/s]
278.15 K	999.99	–
318.15 K	–	1536.8
328.15 K	985.7	1547.7
338.15 K	980.56	1553.6
